One series concerns OATP1B2. Kind of series: Plasma level and DRG/plasma ratio of α-tocopherol in mice (biomarker of OATP1B2 function). Format: in vivo, mouse. Particulars: WT mice treated with the inhibitor; plasma.
The next series relates to OATP1B-type transporters. Conditions: read-out: IC50, inhibition of OATP1B-mediated transport; cited from earlier work.
The next series deals with T1, mOATP1B2 (Mus musculus, UniProt Q9JJL3).
T1 sequence (Q9JJL3 1-689): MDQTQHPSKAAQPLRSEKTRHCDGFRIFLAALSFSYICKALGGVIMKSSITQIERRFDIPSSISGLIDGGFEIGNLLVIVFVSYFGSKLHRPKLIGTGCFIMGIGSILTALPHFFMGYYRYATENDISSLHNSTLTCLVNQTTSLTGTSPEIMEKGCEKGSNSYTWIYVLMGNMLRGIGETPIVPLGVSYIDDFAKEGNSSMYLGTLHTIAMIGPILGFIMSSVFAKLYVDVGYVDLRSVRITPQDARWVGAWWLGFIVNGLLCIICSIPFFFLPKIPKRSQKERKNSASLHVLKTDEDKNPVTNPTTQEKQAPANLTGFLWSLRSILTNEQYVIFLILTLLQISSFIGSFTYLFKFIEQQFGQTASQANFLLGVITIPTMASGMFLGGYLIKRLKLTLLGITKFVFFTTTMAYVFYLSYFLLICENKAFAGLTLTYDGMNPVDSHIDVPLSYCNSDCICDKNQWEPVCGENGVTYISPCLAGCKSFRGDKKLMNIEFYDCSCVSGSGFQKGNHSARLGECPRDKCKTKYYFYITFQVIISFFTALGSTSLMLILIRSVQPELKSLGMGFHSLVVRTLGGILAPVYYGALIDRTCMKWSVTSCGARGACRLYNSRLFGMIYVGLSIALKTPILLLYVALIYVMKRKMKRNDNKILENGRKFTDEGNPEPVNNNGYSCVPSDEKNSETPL
Kind of series: Nilotinib uptake in HEK293 cells overexpressing mOATP1B2. Format: in vitro ADME. Conditions: HEK293 cells overexpressing mOATP1B2 vs vector control.

In the next series the test system is L1210. Particulars: vincristine 1 μM, 30 min, nilotinib 10 μM.
The target in a further series is mMATE1 (Mus musculus, UniProt Q8K0H1). Kind of series: Substrate uptake in HEK293 cells overexpressing mMATE1. Conditions: HEK293 mouse MATE1.
In a further series the target is hOATP1A2 (Homo sapiens, UniProt P46721). Nature of the series: Substrate uptake in HEK293 cells overexpressing hOATP1A2. Conditions: HEK293 OATP1A2. The text has this: transfected with transporters of interest, including hOAT1, hOAT3, hOAT4, hOATP1A2, hOATP3A1, hOATP4A1, hOATP5A1, hOATP1C1, hOATP1B1, hOATP1B3, hOATP2B1, hOCT1, hOCT2, hOCTN1, hOCTN2, hASBT, hNTCP, hNPT1, hMATE1, hOSTα/β, hPEPT1, hPEPT2, rOatp1a1, rOatp1a4, rOatp1a5, rOatp1b2, rNtcp, rAsbt, rOat1, and rOct1. Cells were transfected with expression plasmid or vector control lacking any insert using Lipofectin reagent (Invitrogen). Sixteen hours thereafter, cells were washed with transport media (OPTIMEM, Invitrogen) and treated with radiolabeled drug. At various time intervals, cells were washed three times with ice-cold PBS and then lysed with 1% sodium dodecyl sulfate. The cellular radioactivity was quantified by liquid scintillation counting as described above. Similar analyses were performed in HEK293 cells transfected with hOATP1A2, hOATP1C1, mMATE1, and hMATE1, with cells seeded in poly lysine pre-coated 12-well plates. For hOATP1A2 and hOATP1C1, transient transfections were performed with either an empty vector, OATP1A2, or OATP1C1 using Lipofectamine 2000 according to the manufacturers protocol (Invitrogen). At 48 h post transfection, […]
(§1) Samples were analyzed using real-time quantitative PCR and Taqman Probes (Applied Biosystems). The relative gene expression was determined using the ΔΔCt method, and normalized to the mouse or human housekeeping gene, GAPDH. […]

The test system of a further series is K562. Nature of the series: Cytotoxicity of vincristine with or without nilotinib, MTT assay, K562. Format: cell-based. Conditions: Homo sapiens, K562, K562 cells, vincristine + 1μM Nilotinib, individual replicates. A general note: Tetrazolium assays rely on reduction of a dye to a coloured formazan, in cell work by metabolically active cells.
A further series concerns the target hOAT4 (Homo sapiens, UniProt Q9NSA0). Kind of series: Vincristine uptake screen, HeLa cells overexpressing hOAT4. Format: in vitro ADME. The procedure: Relative uptake is expressed as percentage change compared with empty vector controls (n = 4–14 per group). […] Human OATP1B1 and OATP1B3 transporter–overexpressed cells were used as positive controls; empty vector controls were used as the negative control. […] Mechanical allodynia (C), thermal hyperalgesia (D), and sciatic nerve maximal action potential amplitudes (E) are expressed as percentage change relative to baseline values (n = 6–8 per group). Statistical analysis was performed using a 2-way ANOVA with Bonferroni’s post hoc test. **P < 0.01, ***P < 0.001, ****P < 0.0001, compared with baseline values. […] Data are shown as mean ± SEM. […]
transfected with transporters of interest, including hOAT1, hOAT3, hOAT4, hOATP1A2, hOATP3A1, hOATP4A1, hOATP5A1, hOATP1C1, hOATP1B1, hOATP1B3, hOATP2B1, hOCT1, hOCT2, hOCTN1, hOCTN2, hASBT, hNTCP, hNPT1, hMATE1, hOSTα/β, hPEPT1, hPEPT2, rOatp1a1, rOatp1a4, rOatp1a5, rOatp1b2, rNtcp, rAsbt, rOat1, and rOct1. Cells were transfected with expression plasmid or vector control lacking any insert using Lipofectin reagent (Invitrogen). […] The cellular radioactivity was quantified by liquid scintillation counting as described above. […]
as §1

The next series concerns patients with cancer. Particulars: cited from earlier work.
Another series has as its system THP1. Kind of series: Cytotoxicity of vincristine with or without nilotinib, MTT assay, THP1. Particulars: individual replicates. Format: cell-based, human.

The source of these data is paper PMC10443802, “Targeting a xenobiotic transporter to ameliorate vincristine-induced sensory neuropathy” (JCI Insight, 2023).

As usually defined, the IC50 is the concentration needed to halve the response being measured.

The structures appear in SMILES notation. Several values for one entry are separate records, joined by “and”; a condition that tells them apart may be missing. Equal entries are not always repeated.

hOAT4, sequence (Q9NSA0 whole entry): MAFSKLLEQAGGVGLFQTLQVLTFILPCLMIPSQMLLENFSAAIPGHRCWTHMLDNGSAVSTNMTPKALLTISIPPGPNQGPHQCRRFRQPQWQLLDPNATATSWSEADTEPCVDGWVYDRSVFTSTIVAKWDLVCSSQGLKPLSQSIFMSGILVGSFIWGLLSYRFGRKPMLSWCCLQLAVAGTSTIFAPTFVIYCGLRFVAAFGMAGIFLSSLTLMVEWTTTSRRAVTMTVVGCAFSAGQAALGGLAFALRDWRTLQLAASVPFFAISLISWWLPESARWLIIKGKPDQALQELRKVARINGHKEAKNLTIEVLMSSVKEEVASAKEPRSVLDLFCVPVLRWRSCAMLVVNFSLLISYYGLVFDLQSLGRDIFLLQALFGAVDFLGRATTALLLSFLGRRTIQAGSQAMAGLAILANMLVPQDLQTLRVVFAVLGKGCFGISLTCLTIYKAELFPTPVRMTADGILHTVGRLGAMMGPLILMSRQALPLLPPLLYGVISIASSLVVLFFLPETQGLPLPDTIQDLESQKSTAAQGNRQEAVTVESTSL
hOATP1A2, sequence (P46721 whole entry): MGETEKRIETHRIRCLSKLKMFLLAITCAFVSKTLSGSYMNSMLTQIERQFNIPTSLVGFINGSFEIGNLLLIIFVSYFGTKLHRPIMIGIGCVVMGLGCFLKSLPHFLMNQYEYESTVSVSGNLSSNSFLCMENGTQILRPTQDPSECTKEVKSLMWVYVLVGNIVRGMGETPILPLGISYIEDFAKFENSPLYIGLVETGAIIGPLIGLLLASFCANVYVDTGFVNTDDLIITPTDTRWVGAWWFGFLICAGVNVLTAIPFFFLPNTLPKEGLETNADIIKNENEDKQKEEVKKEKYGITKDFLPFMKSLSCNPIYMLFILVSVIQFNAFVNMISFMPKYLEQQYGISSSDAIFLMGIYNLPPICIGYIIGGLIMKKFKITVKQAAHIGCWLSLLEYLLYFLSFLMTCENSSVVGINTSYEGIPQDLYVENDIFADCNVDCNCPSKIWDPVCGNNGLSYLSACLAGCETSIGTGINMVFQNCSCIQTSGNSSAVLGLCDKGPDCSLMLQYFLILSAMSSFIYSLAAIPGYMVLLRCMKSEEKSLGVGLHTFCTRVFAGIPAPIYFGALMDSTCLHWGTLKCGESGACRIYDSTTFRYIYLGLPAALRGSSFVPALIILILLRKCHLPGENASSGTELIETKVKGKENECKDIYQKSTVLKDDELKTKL
mMATE1, sequence (Q8K0H1 whole entry): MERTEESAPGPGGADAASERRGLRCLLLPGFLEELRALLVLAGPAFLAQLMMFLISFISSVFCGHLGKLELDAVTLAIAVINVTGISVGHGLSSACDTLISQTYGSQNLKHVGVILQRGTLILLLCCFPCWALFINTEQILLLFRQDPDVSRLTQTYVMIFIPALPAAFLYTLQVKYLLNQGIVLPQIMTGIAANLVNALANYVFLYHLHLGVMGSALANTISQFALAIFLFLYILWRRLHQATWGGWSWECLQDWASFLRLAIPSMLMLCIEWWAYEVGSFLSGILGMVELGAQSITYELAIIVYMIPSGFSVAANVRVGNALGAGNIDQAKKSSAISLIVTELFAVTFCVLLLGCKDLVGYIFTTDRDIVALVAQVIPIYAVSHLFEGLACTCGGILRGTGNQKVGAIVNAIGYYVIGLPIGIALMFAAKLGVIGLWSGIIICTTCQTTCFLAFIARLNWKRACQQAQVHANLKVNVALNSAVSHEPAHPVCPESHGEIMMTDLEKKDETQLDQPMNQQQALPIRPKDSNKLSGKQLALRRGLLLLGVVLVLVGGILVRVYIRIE
From the text for L1210: (A) Gene expression of the OATP1B2 gene in L1210 and P388D1 murine leukemia cells
normalized to total protein levels. All data presented represent the mean (bars) ± SEM (error bars).
Method for mMATE1: on OATP1B1, OATP1B3, or OATP1B2 function was evaluated using EβG (Axxora LLC) as the

For the compound `Cc1cn(-c2cc(NC(=O)c3ccc(C)c(Nc4nccc(-c5cccnc5)n4)c3)cc(C(F)(F)F)c2)cn1` [Nilotinib, nilotinib], the “Level of α-tocopherol (% of wild-type baseline), Plasma” value with OATP1B2 is 242.352% and 175.541% and 133.994%. In addition, the IC50 in the series with OATP1B-type transporters was roughly 1000 nM. For the same compound, at mOATP1B2, the “Nilotinib uptake (% of control)” value was 68.9093 % of control and 50.5858 % of control and 83.427 % of control. Further, the “Influence on uptake of vincristine” value in the series on L1210 was “did not influence the uptake of vincristine”.
In the case of `CC[C@]1(O)C[C@H]2CN(CCc3c([nH]c4ccccc34)[C@@](C(=O)OC)(c3cc4c(cc3OC)N(C=O)[C@H]3[C@@](O)(C(=O)OC)[C@H](OC(C)=O)[C@]5(CC)C=CCN6CC[C@]43[C@@H]65)C2)C1` [Vincristine, vincristine], the “Contribution of transporter to cellular uptake of vincristine” value at mMATE1 and at hOATP1A2 was “do not appreciably contribute to the cellular uptake of vincristine” in each case. Also, the IC50 in the series on K562 was 17.5 nM; with THP1 (Homo sapiens, THP-1, THP1 cells, vincristine + 1μM Nilotinib), 11 nM; in the series with THP1 (Homo sapiens, THP-1, THP1 cells, vincristine alone), 15.4 nM; in the series on THP1 (THP1 cells, vincristine alone) it was 14.4 nM (2×) and 15.4 nM and 15.1 nM and 14.6 nM and 10.5 nM and 10.2 nM and 16.9 nM. Moreover, the “Vincristine uptake (% of vector control)” value at hOAT4 was 107.00 % of vector control and 81.00 % of vector control and 79.00 % of vector control and 90.00 % of vector control and 80.00 % of vector control and 99.00 % of vector control and 111.00 % of vector control and 113.00 % of vector control. Also, the “Incidence of sensory peripheral neurotoxicity” value in the series on patients with cancer is given as “up to 100%”.
